Measured values published in patent US20210177722A1, “Phytic Acid Ester Derivative” (NATIONAL UNIVERSITY CORPORATION KUMAMOTO UNIVERSITY, priority 2018, published 2021).

Tests used:
[1] = test system: K562 cell (chronic myelogenous leukemia cell); assay: MTT assay, K562 cell; type: cell-based; details: 1 μM or 10 μM, 8 hours or 24 hours
Procedure: In this example, the cytotoxic effect of Pro-IP6 on four types of blood cancer cell lines and a cell derived from a healthy person was examined by MTT assay. […] It is possible to check viability of cultured cells by MTT assay. Cancer cell lines (1.74×10^4 cells/well, culture fluid: 200 μL) • MT-2 cell (HTLV transformed human T cell leukemia cell) • […] cell (human T-lymphoblastoid cell) • Jurkat cell (human T-lymphocyte cell) • K562 cell (chronic myelogenous leukemia cell) Each of the above-described types of cells was seeded in a 96-well plate, and was cultured for 8 hours for each of the various cancer cell lines and for 16 hours for PMBC. Thereafter, DMSO (1%, Fujifilm Wako Pure Chemical Corporation), an aqueous solution (1%) of IP6 (final concentration: 1 μM or 10 μM, Sigma Aldrich), or a DMSO solution (1%) of Pro-IP6 (final concentration: 1 μM or 10 μM) was added thereto, followed by culturing for 8 hours or 24 hours. An MTT reagent (Dojindo Laboratories, 1.1 mg/mL) was added in an amount of 50 μL per well, and the resultant was cultured for another 4 hours. The thus precipitated crystal was collected, a supernatant was removed, and 100 μL of DMSO was added thereto to completely dissolve. The resultant solution was measured for an absorbance (550 nm).

[2] = test system: Akt; assay: Western blotting (1), anti-phospho-Akt (Thr308) antibody, Jurkat cell; type: cell-based, human; details: 8 hours or 24 hours
Procedure: (§1) In this example, the action mechanism for killing cells by Pro-IP6 was studied by Wester blotting using a Jurkat cell and various antibodies. Jurkat cells (1×10^5 cells/well, culture fluid: 500 μL) were seeded in a 24-well plate to be cultured overnight. Thereafter, DMSO (1%, Fujifilm Wako Pure Chemical Corporation), an aqueous solution (1%) of IP6 (final concentration: 10 μM, Sigma Aldrich), or a DMSO solution (1%) of Pro-IP6 (final concentration: 1 μM or 10 μM) was added thereto, followed by culturing for 8 hours or 24 hours. A supernatant was removed, the resultant was washed with 1× PBS (−) once, Laemmli sample buffer was added thereto, and the resultant was boiled at 100° C. for 1 hour to dissolve the cells. […] Detection was performed using ImmunoStar LD (Fujifilm Wako Pure Chemical Corporation).

[3] = test system: Caspase-3; assay: Western blotting (1), Caspase-3 antibody, Jurkat cell; type: cell-based, human; details: 10 μM
Procedure: as §1

## CCCC(=O)OCOP(=O)(OCOC(=O)CCC)O[C@H]1[C@H](OP(=O)(OCOC(=O)CCC)OCOC(=O)CCC)[C@@H](OP(=O)(OCOC(=O)CCC)OCOC(=O)CCC)[C@H](OP(=O)(OCOC(=O)CCC)OCOC(=O)CCC)[C@@H](OP(=O)(OCOC(=O)CCC)OCOC(=O)CCC)[C@H]1OP(=O)(OCOC(=O)CCC)OCOC(=O)CCC [Pro-IP6, myo-inositol hexaphosphate dodecakis(butyryloxymethyl) ester]
[1]
  lowering of relative cell viability: ≥ 25%
[2]; 1 μM
  phosphorylation of Akt: inhibits phosphorylation of Akt
[2]; 10 μM
  phosphorylation of Akt: inhibits phosphorylation of Akt
[3]
  cleavage of Caspase-3 (induction of apoptosis): cleavage of PARP-1 and Caspase-3 was observed
